From patent US11420994B2, “Carbon-monoxide-releasing molecules and therapeutic applications thereof” (GEORGIA STATE UNIVERSITY RESEARCH FOUNDATION, INC., priority 2016, dated 2022)

What was measured:
TNF-α = TNF-α ELISA in LPS treated RAW 264.7 cells pre-treated with CO prodrug; assay type: cell-based, mouse; details: pre-treated 5 h, then LPS 1 h
Protocol: RAW 264.7 cells were seeded in the 48-well plate one day before the experiment.
LPS was used to initialize the inflammatory response in RAW 264.7 cells and trigger the expression of cytokines. RAW 264.7 cells were pre-treated with different concentrations of 10b or 44b product for 5 hours. Thereafter, […] LPS was added with into the cell culture media. For TNF-α test, the cell culture supernatant was collected after 1 hour of LPS treatment. For IL-6 test, the cell culture supernatant was collected after 4 hours of LPS treatment. Cell culture without LPS treatment was used as control.
10a-10d, and 100 with different release rates were chosen to test their inhibitory effect against lipopolysaccharide (LPS) induced TNF-α secretion in RAW 264.7 cells. […] This was followed by the treatment of LPS for another 1 h. Then the cell culture supernatants were subjected to ELISA assay for TNF-α levels.

[1] = CO release kinetics by increase of fluorescence intensity; assay type: physicochemical; details: DMSO/PBS (pH = 7.4) 5:1 at 37° C.
Protocol: Compound 10a was dissolved indifferent solvents including CH2Cl2 (25° C.), CH3CN (25° C.), DMSO (25° C.), DMSO/PBS (10:1, 25° C.), DMSO/PBS (5:1, 25° C.), and DMSO/PBS (5:1, 37° C.) to give a final concentration of around 100 μM, and CO release was monitored by fluorescence intensity at 450 nm. Each experiment was repeated three times independently. The CO release rate (first order reaction rate) in DCM, CH3CN, DMSO, DMSO/PBS (10:1), DMSO/PBS (5:1), and DMSO/PBS (5:1, 37° C.) were different and their individual rate constant was calculated to be 2.3±0.2, 3.6±0.4, 6.6±0.6, 7.7±0.6, 11.0±1.4 and 22.4±3.2 h^−1, respectively. […] The CO release rate increased along with the polarity of the solvent.

[2] = Fluorescence properties of the cycloaddition products; assay type: physicochemical; details: for λem emission wavelength / λex excitation wavelength: of the cycloaddition products 44a-44f and 100a; for Φ quantum yield: of the cycloaddition products 44a-44f and 100a in MeOH, quinine sulfate as the standard
[3] = Kinetics of the Diels-Alder reaction of TPCPD with exo-BCN (UV-Vis); assay type: physicochemical
Protocol: Separate solutions of pure TPCPD (1) and pure exo-BCN (6a) (>95-98% by H-NMR) were prepared in HPLC-grade methanol (acetonitrile, 1,2-dichloroethane, dioxane) at room temperature. The stability of TPCPD in methanol (25 μM) was examined by monitoring its absorption maximum at 335 nm. The solutions containing TPCPD (1, 50 μM, 400 μL) and 18-fold excess of exo-BCN (6a, 900 μM, 400 μL) were added into quartz cuvettes, thoroughly mixed and sealed with a PTFE cap. All kinetic runs were triplicates. Curve fitting was operated in Prism5 software.
The reaction between 1 and 6a (Scheme 8) leads to significant changes in the UV-Vis spectrum of TPCPD […] due to its conversion to the cyclization product 31 (FIG. 1a). Therefore, the reaction can be easily monitored.
It was observed that the reaction rate between TPCPD and BCN was moderately sensitive to the reaction solvent. Methanol, acetonitrile, […] (DCE), and dioxane were chosen for the kinetic studies. The reaction appears to be faster in polar solvents than in nonpolar solvents. […] In order to utilize the reaction under physiological conditions, the reaction rate was measured at physiological temperature, 37° C.

RAW cells = test: WST-1 cytotoxicity test; assay type: cell-based, mouse
Protocol: In order to assess the cytotoxic effect of the reactants, 1 and 6a, as well as product 31, on RAW cells, the cytotoxicity test WST-1 was performed to examine induction by TPCPD (1) and BCN (6a) over varying concentrations and periods of time (FIGS. 3a-c).
Different concentrations of each molecule were assessed: from 0.78 to 100 μM for 1 and 31 and 7.8 to 1000 μM for 6a. Different time points were assessed (1 h, 4 h, 8 h and 24 h). Triton 0.1% was used as a positive control of cytotoxicity and the subsequent value was established as 100% of cytotoxicity.

[4] = Determination of CO release rates (fluorescence or UV absorbance); assay type: physicochemical; details: DMSO/PBS (4:1) at 37° C.
Protocol: For CO prodrugs with naphthalene scaffold, the CO release rate is easily done by monitoring the fluorescence intensity of the cyclized product. For the others, the CO release rate was determined by employing the UV absorbance difference between the prodrugs and the cyclized product.

[5] = Reaction of TPCPD with cyclooctynes at 50 mM, time to completion; assay type: physicochemical; details: 50 mM concentration
TNBS induced colitis = TNBS induced colitis in mice; assay type: in vivo
Protocol: Male adult C57BL/6 mice (8-12 weeks, 20-25 g) were obtained from Sichuan University laboratory animal center, and housed in standard conditions with constant temperature (22±2° C.) and 12 h light-dark cycle, free to sterile water and standard food.
TNBS (Trinitrobenzene sulfonic acid) enema was used for colitis induction.^3 Mice were randomly assigned into four groups: sham control group, TNBS model group, 10b treatment group and 44b group. Briefly, mice were fasted for 24 h, and then lightly anesthetized with 1% isoflurane. TNBS (in saline-ethanol, 50:50, v/v) solution 50 μL was infused into the colon using a cannula with the depth of 4 cm from anus. Mice in sham control group received 50 μL vehicle (saline-ethanol, 50:50, v/v). Mice were held with a vertical position for at least 30s after infusion, for sake of homogenous distribution and retention of TNBS. Mice would not be put back to the cage until they wake up and have autonomous respiration.
Drug administration. Vehicle solution (Solutol:saline=30:70), 10b (15 mg/kg) and 44b (15 mg/kg) was i.p. injected 1 hour before model construction; and 24 h, 48 h and 72 h after model construction. Euthanasia was conducted on 1st/3rd/7th day respectively through intraperitoneally injecting of pentobarbital sodium, and samples were removed and analyzed later.
Macroscopic evaluation of colitis damage. Colons were removed quickly and lengths were measured and represented in centimeter. After that, colons were longitudinally excised and carefully washed with ice-cold normal saline. Macroscopic signs of colon damage were evaluated by an experimenter blind to the mice grouping, according to an established semi-quantitative scoring system: Ulcer (0.5 points=0.5 cm); Colonic shortening (1 point≥15%, 2 points≥25%, based on the average length of colons from the control group); Every additional presence of hemorrhage, diarrhea or fecal blood added 1 point to the score. Intestinal wall thickness was measured in millimeter and recorded as well.
Mice were dosed with 10b (15 mg/kg), 44b (15 mg/kg), or the vehicle (solutol/saline=30:70) control by intraperitoneal injection 1 h before the model construction, and then dosed again at 24 h, 48 h and 72 h time points after the model construction; and then sacrificed. Colon was removed for macroscopic evaluation of colitis damage.

[6] = 8 h, within the concentration range studied
[7] = 15 mg/kg i.p., compared to the TNBS group

CN1Cc2c(c3c(c(-c4ccccc4)c2[Si](c2ccccc2)(c2ccccc2)C(C)(C)C)-c2cccc4cccc-3c24)C1=O [Compound 44d]
LPS-induced TNF-α expression / secretion (TNF-α): did not show any TNF-α suppression effects

CN(CC#C[Si](c1ccccc1)(c1ccccc1)C(C)(C)C)C(=O)C1=C2C(=C(c3ccccc3)C1=O)c1cccc3cccc2c13 [Compound 10d]
LPS-induced TNF-α expression / secretion (TNF-α): suppressed TNF-α secretion, but it did not show any dose-dependent effect | k CO release rate [1]: 22.6 ± 0.2 h⁻¹ | λem emission wavelength [2]: 456 nm | λex excitation wavelength [2]: 378 nm | Φ quantum yield [2]: 0.21

O=C1C(c2ccccc2)=C(c2ccccc2)C(c2ccccc2)=C1c1ccccc1 [TPCPD]
k2 second order rate constant ([3]; CH3CN, r.t.): 0.26 M⁻¹ s⁻¹ | k2 second order rate constant ([3]; DCE, r.t.): 0.17 M⁻¹ s⁻¹ | k2 second order rate constant ([3]; Dioxane, r.t.): 0.096 M⁻¹ s⁻¹ | k2 second order rate constant ([3]; MeOH, 37° C.): 1.1 M⁻¹ s⁻¹ | k2 second order rate constant ([3]; MeOH, r.t.): 0.50 M⁻¹ s⁻¹ | toxicity (Triton 0.1% = 100%) (RAW cells; 8 h, 50 μM): 44% | toxicity (Triton 0.1% = 100%) (RAW cells; 8 h, 100 μM): 49% | cytotoxicity (RAW cells; 24 h, concentrations higher than 12.5 μM): more than 50%

C#CCOC(=O)C1=C2C(=C(c3ccccc3)C1=O)c1cccc3cccc2c13 [Compound 10e]
λem emission wavelength [2]: 454 nm | λex excitation wavelength [2]: 367 nm | Φ quantum yield [2]: 0.14

C#CCN(c1ccccc1C1=C2C(=C(C(=O)N3CCOCC3)C1=O)c1cccc3cccc2c13)S(C)(=O)=O [Compound 127]
K CO release [4]: 0.88 ± 0.01 h⁻¹

C#CCNC(=O)C1=C2C(=C(c3ccccc3)C1=O)c1cccc3cccc2c13 [Compound 10f]
λem emission wavelength [2]: 456 nm | λex excitation wavelength [2]: 370 nm | Φ quantum yield [2]: 0.18

C#CCOC(=O)C1=C(c2ccccc2)C(c2ccccc2)=C(c2ccccc2)C1=O [Compound 119]
K CO release [4]: 5.89 ± 0.61 h⁻¹

C#CC(C)OC(=O)C1=C2C(=C(c3ccccc3)C1=O)c1cccc3cccc2c13 (centres unmarked) [Compound 104]
K CO release [4]: 0.012 ± 0.0003 h⁻¹

C#CC(C)(C)OC(=O)C1=C2C(=C(c3ccccc3)C1=O)c1cccc3cccc2c13 [Compound 105]
K CO release [4]: 1.28 ± 0.183 h⁻¹

C#CC(C)OC(=O)C1=C(c2ccccc2)C(c2ccccc2)=C(c2ccccc2)C1=O (centres unmarked) [Compound 120]
K CO release [4]: 9.4 ± 0.02 h⁻¹

C#CCCN(CCN1CCOCC1)C(=O)C1=C2C(=C(c3ccccc3)C1=O)c1cccc3cccc2c13 [Compound 110]
time in which CO release was finished [4]: CO release was finished in 4 h.

C#CC(C)(C)NC(=O)C1=C2C(=C(c3ccccc3)C1=O)c1cccc3cccc2c13 [Compound 109]
K CO release [4]: 3.31 ± 0.28 h⁻¹

C#CC(C)(C)NC(=O)C1=C2C(=C(SC)C1=O)c1cccc3cccc2c13 [Compound 111]
K CO release [4]: 4.63 ± 0.28 h⁻¹

OC[C@@H]1[C@H]2CCc3c(c(-c4ccccc4)c(-c4ccccc4)c(-c4ccccc4)c3-c3ccccc3)CC[C@@H]12 [Compound 31]
cytotoxicity (RAW cells; [6]): Neither 6a (FIG. 3b) and nor the product (FIG. 3c) displayed any sign of cytotoxicity | cytotoxicity (RAW cells; 24 h, within the concentration range tested): not cytotoxic

C#CC(C)Oc1ccccc1C1=C2C(=C(C(=O)N3CCOCC3)C1=O)c1cccc3cccc2c13 (centres unmarked) [Compound 125]
K CO release [4]: 0.10 ± 0.003 h⁻¹

Cc1c2c(c3c(c1-c1ccccc1)-c1cccc4cccc-3c14)C(=O)N(C(C)C)CC2 [Compound 44c]
LPS-induced TNF-α expression / secretion (TNF-α): did not show any TNF-α suppression effects

C#CC(C)(C)OC(=O)C1=C2C(=C(SC)C1=O)c1cccc3cccc2c13 [Compound 112]
K CO release [4]: 1.29 ± 0.07 h⁻¹

C1#CCCCCCC1 [cyclooctyne]
time in which reaction with TPCPD finished [5]: 15 min

fluorocyclooctyne [fluorocycolooctyne]
time after which reaction with TPCPD had not reached completion [5]: > 24 h

OCC1[C@H]2CCC#CCC[C@@H]12 (some centres unmarked) [BCN]
time in which reaction with TPCPD finished [5]: ≤ 5 min | cytotoxicity (RAW cells; [6]): Neither 6a (FIG. 3b) and nor the product (FIG. 3c) displayed any sign of cytotoxicity | cytotoxicity (RAW cells; 24 h, 1 mM): 60%

CC(C)N1CCc2cc(-c3ccccc3)c3c(c2C1=O)-c1cccc2cccc-3c12 [Compound 44b]
LPS-induced TNF-α expression / secretion (TNF-α): did not show any TNF-α suppression effects | survival rate (TNBS induced colitis; 15 mg/kg i.p. 1 h before and 24, 48, 72 h after TNBS): no similar effects were observed | colon length (TNBS induced colitis; [7]): no similar effects were observed | colon thickness (TNBS induced colitis; [7]): no similar effects were observed | injury score (TNBS induced colitis; [7]): no similar effects were observed

C#CC(C)NC(=O)C1=C2C(=C(c3ccccc3)C1=O)c1cccc3cccc2c13 (centres unmarked) [Compound 108]
K CO release [4]: 0.058 ± 0.003 h⁻¹
